Columns and labels:
[1] = molecular target: T1, malonyl-CoA decarboxylase prepared from rat heart (Rattus norvegicus, UniProt Q920F5); test: In vitro MCD inhibitory assay (spectrophotometric, 96 well); type: biochemical; settings: read-out: IC50 of the MCD inhibitors
T1 construct: malonyl-CoA decarboxylase prepared from rat heart; from tissue; host or cells: rat heart
T1 sequence (Q920F5 39-492): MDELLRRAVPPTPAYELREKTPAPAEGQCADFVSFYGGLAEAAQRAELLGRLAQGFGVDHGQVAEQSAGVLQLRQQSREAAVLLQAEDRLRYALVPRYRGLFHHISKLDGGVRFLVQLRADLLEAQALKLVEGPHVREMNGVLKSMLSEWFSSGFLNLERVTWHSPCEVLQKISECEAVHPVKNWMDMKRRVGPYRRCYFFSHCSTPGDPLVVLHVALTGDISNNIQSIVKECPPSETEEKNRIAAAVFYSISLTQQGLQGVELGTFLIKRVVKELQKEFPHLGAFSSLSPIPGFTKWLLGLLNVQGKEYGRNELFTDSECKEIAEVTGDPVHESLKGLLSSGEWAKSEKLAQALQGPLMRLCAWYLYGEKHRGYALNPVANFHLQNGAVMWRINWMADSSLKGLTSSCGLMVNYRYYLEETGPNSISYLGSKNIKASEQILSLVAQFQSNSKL
Experimental: The following reagents are added into a 96 well titer plate: Tris-HCl buffer, 20 μL; DTE, 10 μL; l-malate, 20 μL; NAD, 10 μL; NADH, 25 μL; water, 80 μL; malic dehydrogenase, 5 μL. The contents are mixed and incubated for 2 min followed by the addition of 5 μL of citrate synthase. […] The content is incubated and absorbence at […] is measured.
Active compounds are characterized by the concentration of the compound that caused 50% inhibition of MCD activity (IC50).

[2] = test system: isolated working hearts from male Sprague-Dawley rats; test: Glucose oxidation and fatty acid oxidation measurement in the perfused rat heart; settings: isolated perfused rat heart assay; versus ranolazine or trimetazidine
Experimental: Isolated working hearts from male Sprague-Dawley rats are subjected to a 60-minute aerobic perfusion period with a modified Krebs-Henseleit solution containing 5 mmol/L glucose; 100 μU/mL insulin; 3% BAS; and 1.2 mmol/L palmitate. Working hearts are used in these studies to approximate the metabolic demand of the heart seen in vivo. (Kantor et al., Circulation Research 86:580-588 (2000)). The test compound is added 5 minutes into the perfusion period.
Glucose oxidation rates are determined by the quantitative collection of ^14CO2 produced by hearts perfused with buffer containing […]. Rates of fatty acid oxidation are determined by the quantitative collection of ^14CO2 produced by hearts perfused with buffer containing [^14C]palmitate (McNeill, J. H. in “Measurement of cardiovascular function”, chapter 2, CRC press, New York (1997)).
Active compounds are characterized by an increase in glucose oxidation as compared to control experiment (DMSO). The compounds that caused statistically significant increases in glucose oxidation are considered to be active. The preferred compounds cause statistically significant increases in glucose oxidation at 20 μM. Statistical significance was calculated using the Student's t test for paired or unpaired samples, as appropriate. The results with P<0.05 are considered to be statistically significant.

| SMILES | IC50 [1] | effects in metabolism shift compared with known metabolism modulators [2] | melting point |
| --- | --- | --- | --- |
| CC(C)N(C(=O)c1ccc(C(F)(F)F)cc1)c1ccc2nc(S)sc2n1 [Table 8; entry 7] | 25 nM | more profound effects in metabolism shift than the known metabolism modulators such as ranolazine or trimetazidine | – |
| CC(C)N(C(=O)Nc1ccc(C(F)(F)F)cc1)c1ccc2nc(S)sc2c1 [Table 3; entry 16] | 23 nM | more profound effects in metabolism shift than the known metabolism modulators such as ranolazine or trimetazidine | – |
| CC(C)CN(C(=O)Nc1ccc(C(F)(F)F)cc1)c1ccc2nc(S)sc2c1 [Table 3; entry 1, N-(2-mercapto-1,3-benzothiazol-6-yl)-N-(2-methylpropyl)-N′-[4-(trifluoromethyl)phenyl]urea] | 31 nM | – | – |
| CC(C)N(C(=O)Oc1ccc(Cl)cc1)c1ccc2nc(S)sc2c1 [Table 4; entry 4] | 75 nM | – | – |
| CC(C)CN(C(=O)Nc1ccc(C#N)cc1)c1ccc2nc(S)sc2c1 [Table 3; entry 3] | 93 nM | – | – |
| CC(C)N(C(=O)Nc1ccc(C(F)(F)F)cc1)c1ccc2nc(S)sc2n1 [Table 7; entry 8] | 52 nM | – | – |
| CCN(C(=O)COc1ccccc1)c1ccc2nc(S)sc2n1 [Table 8; entry 1, N-ethyl-N-(2-mercapto-thiazolo[5,4-b]pyridin-5-yl)-2-phenoxy-acetamide] | 98 nM | – | 107.5 to 109 °C |
| CC(C)N(C(=O)OCCOCc1ccccc1)c1ccc2nc(S)sc2c1 [Table 4; entry 6] | 1600 nM | – | – |
| CC(C)N(C(=O)Nc1ccc(CC(=O)O)cc1)c1ccc2nc(S)sc2c1 [Table 3; entry 17] | 42 nM | – | – |
| CCCCOc1ccc(NC(=O)N(CC)c2ccc3nc(S)sc3n2)cc1 [Table 7; entry 1, 3-(4-butoxy-phenyl)-1-ethyl-1-(2-mercapto-thiazolo[5,4-b]pyridin-5-yl)-urea] | 62 nM | – | 134.3 to 135 °C |
| O=C1CNC(=S)N1c1ccc2nc(S)sc2c1 [Table 5; entry 1, 3-(2-mercapto-1,3-benzothiazol-6-yl)-2-thioxoimidazolidin-4-one] | – | – | > 266 °C |

Source: patent US8110686B2 (Chugai Seiyaki Kabushiki Kaisha, priority 2001, dated 2012)
